For test [1], the system named is peripheral blood mononuclear cells (PBMC) stimulated with allogeneic PBMC or EBV-transformed human B cells (RPMI1788). In words: Mixed lymphocyte reaction (MLR) assay. It counts as cell-based. Conditions: 50% suppression of the MLR, [3H]-thymidine incorporation, read-out: MLR. In a few lines: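 Responder PBMC co-cultured in triplicate with 30 Gy-irradiated allogeneic PBMC or RPMI1788 B cells plus compound (DMSO stock 10 mM, diluted in medium). After 5 days at 37° C, 1 μCi [3H]-thymidine added for 16 h more; incorporated cpm counted and proliferation inhibition calculated.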

Test [2] relates to production of human TNF-α by PBMC in response to LPS. Put plainly: TNF-α assay (LPS-stimulated PBMC, sandwich ELISA). It counts as cell-based. As to conditions: LPS 1 μg/ml, 72 hours, read-out: TNF α. Here is the method:
Peripheral blood mononuclear cells (herein referred as PBMC), in response to stimulation by lipopolysaccharide (hereinafter LPS), a gram-negative bacterial endotoxin, produce various […], in particular human TNF-α. Inhibition of the activation of PBMC can therefore be measured by the level of suppression of the production of TNF-α by PBMC in response to stimulation by LPS. Inhibition measurement was performed as follows: PBMC were isolated from heparinized peripheral blood by density gradient centrifugation over Lymphoprep (commercially available from Nycomed, Norway). LPS was then added to the PMBC suspension in complete medium (10^6 cells/ml) at a final concentration of 1 μg/ml. The pteridine derivative to be tested was added at different concentrations (0.1 μM, 1 μM and 10 μM) and the cells were incubated at 37° C. for 72 hours in 5% CO2. The supernatants were collected, then TNF-α concentrations were measured with respectively an anti-TNF-α antibody in a sandwich ELISA (Duo Set ELISA human TNFα, commercially available from R&D Systems, United Kingdom). The colorimetric reading of the ELISA was measured by a Multiskan RC plate reader (commercially available from ThermoLabsystems, Finland) at 450 nm (reference wavelength: 690 nm). Data analysis was performed with Ascent software 2.6. (also from ThermoLabsystems, Finland): a standard curve (recombinant human TNFα) was drawn and the amount (pg/ml) of each sample on the standard curve was determined. The % suppression of human TNFα production by the pyrido[3,2-d]pyrimidine derivatives of the invention was calculated using the formula: [formula]

Like-named read-outs stand apart in the source and are kept apart here.

Experimental findings from patent US20090264415A2 (priority 2004, published 2009) are described below.

Regarding `COc1cc(-c2ccc3nc(N)nc(N4CCN(C(=O)Nc5cccc(C)c5)CC4)c3n2)ccc1O` [Example 104, 2-amino-4-[(N-3-methyl-phenyl-carbamoyl)-piperazin-1-yl]-6-(4-hydroxy-3-methoxyphenyl)-pyrido[3,2-d]pyrimidine], the figures for the IC50 in test [1] and in test [2] were 400 nM and 300 nM, respectively.
The matching figures for `COc1ccc(-c2ccc3ncnc(N4CCN(c5ccc(C)cc5)CC4)c3n2)cc1OC` [Example 105, 4-(4-methyl-phenyl-piperazin-1-yl)-6-(3,4-dimethoxy-phenyl)-pyrido[3,2-d]pyrimidine]: 800 nM and 90 nM.
With `COc1ccc(-c2ccc3ncnc(N4CCNCC4)c3n2)cc1OC` [Example 107, 4-(N-piperazin-1-yl)-6-(3,4-dimethoxyphenyl)-pyrido[3,2-d]-pyrimidine], the IC50 came to 3800 nM in test [1] and 2700 nM in test [2].
Regarding `COc1ccc(-c2ccc3ncnc(N4CCNCC4)c3n2)cc1C` [Example 116, 4-(piperazin-1-yl)-6-(3-methyl-4-methoxyphenyl)-pyrido[3,2-d]pyrimidine], the IC50 stood at 5100 nM in test [1] (Homo sapiens, RPMI-1788) and 8100 nM in test [2] (Homo sapiens, PBMC).
Take `Clc1ccc(-c2ccc3ncnc(N4CCOCC4)c3n2)cc1` [Example 124, 4-morpholino-6-(4-chlorophenyl)-pyrido[3,2-d]pyrimidine]: the IC50 came to 7200 nM in test [1] (Homo sapiens, RPMI-1788) and 10000 nM in test [2] (Homo sapiens, PBMC).
In the same order, the values of `COc1ccc(-c2ccc3nc(N)nc(N4CCOCC4)c3n2)cc1C` [Example 163, 2-amino-4-(morpholino)-6-(3-methyl-4-methoxyphenyl)pyrido[3,2-d]pyrimidine] are 3600 nM and 6500 nM.
Consider `COc1ccc(-c2ccc3nc(N)nc(N4CCOCC4)c3n2)cc1Cl` [Example 164, 2-amino-4-(morpholino)-6-(3-chloro-4-methoxyphenyl)pyrido[3,2-d]pyrimidine], for which the IC50 in test [1] (Homo sapiens, RPMI-1788) worked out at 600 nM; in test [2] (Homo sapiens, PBMC), 1500 nM.
For `Nc1nc(N2CCOCC2)c2nc(-c3ccc4c(c3)OCCO4)ccc2n1` [Example 165, 2-amino-4-(morpholino)-6-(1,4-benzodioxane-phenyl)pyrido[3,2-d]pyrimidine], the IC50 in test [1] came to 600 nM; in test [2] it was 900 nM.
In the case of `CCOc1ccc(-c2ccc3nc(N)nc(N4CCOCC4)c3n2)cc1F` [Example 166, 2-amino-4-morpholino-6-(3-fluoro-4-ethoxy-phenyl)-pyrido[3,2-d]pyrimidine], the IC50 turned out to be 700 nM in test [1] (Homo sapiens, RPMI-1788) and 800 nM in test [2] (Homo sapiens, PBMC).
In the same order, the values of `CC(=O)N1CCN(c2nc(N)nc3ccc(-c4ccc5c(c4)OCO5)nc23)CC1` [Example 190, 2-amino-4-[N-acetyl-piperazin-1-yl]-6-(3,4-methylenedioxyphenyl)-pyrido[3,2-d]pyrimidine] are 800 nM and 4800 nM.
As for `Nc1nc(N2CCN(CC(=O)Nc3nccs3)CC2)c2nc(-c3ccc4c(c3)OCO4)ccc2n1` [Example 191], the IC50 in test [1] (Homo sapiens, RPMI-1788) came to 400 nM; in test [2] (Homo sapiens, PBMC) it was 3500 nM.
Take `Nc1nc(N2CCN(C(=O)COc3ccc(Cl)cc3)CC2)c2nc(-c3ccc4c(c3)OCO4)ccc2n1` [Example 193, 2-amino-4-[N-(4-chlorophenoxy-acetyl)-piperazin-1-yl]-6-(3,4-methylenedioxyphenyl)-pyrido[3,2-d]pyrimidine]: the IC50 in test [1] (Homo sapiens, RPMI-1788) came out at 40 nM; in test [2] (Homo sapiens, PBMC), 5800 nM.
`Cc1cccc(NC(=O)N2CCN(c3nc(N)nc4ccc(-c5ccc6c(c5)OCO6)nc34)CC2)c1` [Example 196, 2-amino-4-[N-(3-methyl-phenyl-carbamoyl)-piperazin-1-yl]-6-(3,4-methylenedioxyphenyl)-pyrido[3,2-d]pyrimidine]: the IC50 in test [1] (Homo sapiens, RPMI-1788) worked out at 30 nM; in test [2] (Homo sapiens, PBMC) it was 5300 nM.
Turning to `CC(=O)N1CCN(c2nc(N)nc3ccc(-c4ccc5c(c4)OCCO5)nc23)CC1` [Example 199, 2-amino-4-[N-acetyl-piperazin-1-yl]-6-(1,4-benzodioxane)-pyrido[3,2-d]pyrimidine], the IC50 in test [1] (Homo sapiens, RPMI-1788) is 4800 nM; in test [2] (Homo sapiens, PBMC) it was 2900 nM.
Take `Nc1nc(N2CCN(CC(=O)Nc3nccs3)CC2)c2nc(-c3ccc4c(c3)OCCO4)ccc2n1` [Example 201]: the IC50 in test [1] (Homo sapiens, RPMI-1788) came to 800 nM; in test [2] (Homo sapiens, PBMC), 3400 nM.
The matching figures for `Nc1nc(N2CCOCC2)c2nc(-c3ccccc3Br)ccc2n1` [Example 210, 2-amino-4-morpholino-6-(2-bromo-phenyl)-pyrido[3,2-d]pyrimidine]: 1800 nM and 7200 nM.
On to `COc1ccc(-c2ccc3ncnc(N4CCN(C(=O)Nc5cccc(Cl)c5)CC4)c3n2)cc1OCC1CC1` [Example 215, 4-[N-(3-chloro-phenylcarbamoyl)-piperazin-1-yl]-6-(3-cyclopropylmethoxy-4-methoxy-phenyl)-pyrido[3,2-d]pyrimidine], for which the IC50 came to 200 nM in test [1] (Homo sapiens, RPMI-1788) and 800 nM in test [2] (Homo sapiens, PBMC).
Turning to `COc1ccc(-c2ccc3nc(N)nc(N4CC[C@H](N)C4)c3n2)cc1OC` [Example 219, 2-amino-4-[(S)-3-(amino)pyrrolidine]-6-(3,4-dimethoxyphenyl)-pyrido[3,2-d]pyrimidine], the IC50 was 5500 nM in test [1] (Homo sapiens, RPMI-1788) and 1900 nM in test [2] (Homo sapiens, PBMC).
With `COc1ccc(-c2ccc3nc(N)nc(N4CC[C@H](NC(=O)COc5ccc(Cl)cc5)C4)c3n2)cc1OC` [Example 220], the IC50 in test [1] (Homo sapiens, RPMI-1788) is 4300 nM; in test [2] (Homo sapiens, PBMC), 1800 nM.
On to `COc1ccc(-c2ccc3nc(N)nc(SC)c3n2)cc1OC` [Example 223, 2-amino-4-thiomethyl-6-(3,4-dimethoxyphenyl)-pyrido[3,2-d]pyrimidine], for which the figures for the IC50 in test [1] and in test [2] were 900 nM and 800 nM, respectively.
For `Nc1nc(N2CCOCC2)c2nc(-c3ccco3)ccc2n1` [Example 232, 2-amino-4-morpholino-6-(2-furan)-pyrido[3,2-d]pyrimidine], the IC50 in test [1] and in test [2] was 5300 nM throughout.
In the case of `Nc1nc(N2CCOCC2)c2nc(-c3ccsc3)ccc2n1` [Example 233, 2-amino-4-morpholino-6-(3-thiophene)-pyrido[3,2-d]pyrimidine], the IC50 stood at 4400 nM in test [1] and 3700 nM in test [2].
With `Nc1nc(N2CCOCC2)c2nc(-c3ccncc3)ccc2n1` [Example 234, 2-amino-4-morpholino-6-(4-pyridinyl)-pyrido[3,2-d]pyrimidine], the IC50 in test [1] (Homo sapiens, RPMI-1788) amounted to 700 nM; in test [2] (Homo sapiens, PBMC), 500 nM.
Consider `Cc1ccc(-c2ccc3nc(N)nc(N4CCOCC4)c3n2)s1` [Example 235, 2-amino-4-morpholino-6-(5-methyl-2-thienyl)-pyrido[3,2-d]pyrimidine], for which the IC50 in test [1] (Homo sapiens, RPMI-1788) is 3400 nM; in test [2] (Homo sapiens, PBMC) it was 1800 nM.
For `Nc1nc(N2CCOCC2)c2nc(-c3ccc4[nH]ccc4c3)ccc2n1` [Example 237, 2-amino-4-morpholino-6-(5-indolyl)-pyrido[3,2-d]pyrimidine], the IC50 worked out at 800 nM in test [1] (Homo sapiens, RPMI-1788) and 2600 nM in test [2] (Homo sapiens, PBMC).
`Nc1nc(N2CCOCC2)c2nc(-c3cccs3)ccc2n1` [Example 238, 2-amino-4-morpholino-6-(2-thienyl)-pyrido[3,2-d]pyrimidine]: the IC50 in test [1] (Homo sapiens, RPMI-1788) was 800 nM; in test [2] (Homo sapiens, PBMC), 2800 nM.
For the compound `Cc1csc(-c2ccc3nc(N)nc(N4CCOCC4)c3n2)c1` [Example 239, 2-amino-4-morpholino-6-(4-methyl-2-thienyl)-pyrido[3,2-d]pyrimidine], the IC50 is 4600 nM in test [1] (Homo sapiens, RPMI-1788) and 4900 nM in test [2] (Homo sapiens, PBMC).
The matching figures for `Nc1nc(N2CCOCC2)c2nc(-c3cccnc3)ccc2n1` [Example 240, 2-amino-4-morpholino-6-(3-pyridinyl)-pyrido[3,2-d]pyrimidine]: 1300 nM and 700 nM.
For the compound `Nc1nc(N2CCOCC2)c2nc(-c3ccc(Cl)s3)ccc2n1` [Example 241, 2-amino-4-morpholino-6-(5-chloro-2-thienyl)-pyrido[3,2-d]pyrimidine], the IC50 is 2200 nM in test [1] (Homo sapiens, RPMI-1788) and 5400 nM in test [2] (Homo sapiens, PBMC).
Turning to `Nc1nc(N2CCOCC2)c2nc(-c3ccc(F)c(F)c3)ccc2n1` [Example 243, 2-amino-4-morpholino-6-(3,4-difluorophenyl)-pyrido[3,2-d]pyrimidine], the IC50 in test [1] (Homo sapiens, RPMI-1788) came out at 2300 nM; in test [2] (Homo sapiens, PBMC), 6000 nM.
On to `Cc1cc(-c2ccc3nc(N)nc(N4CCOCC4)c3n2)ccc1F` [Example 244, 2-amino-4-morpholino-6-(4-fluoro-3-methylphenyl)-pyrido[3,2-d]pyrimidine], for which the IC50 in test [1] (Homo sapiens, RPMI-1788) was 3800 nM; in test [2] (Homo sapiens, PBMC) it was 7200 nM.
For the compound `Cc1noc(C)c1-c1ccc2nc(N)nc(N3CCOCC3)c2n1` [Example 246, 2-amino-4-morpholino-6-[4-(3,5-dimethylisoxazolyl)]-pyrido[3,2-d]pyrimidine], the values for the IC50 in test [1] and in test [2] were 5500 nM and 1600 nM, respectively.
